According to patent US20240009170A1, “INHIBITION OF GLYCOGEN SYNTHASE KINASE-3 (GSK-3)” (Brown University, priority 2020, published 2024):

Legend:
GSK-3 = details: cited from earlier work
[1] = test system: HCT-116 colorectal cancer cells; test: Co-culture of HCT-116 and TALL-104 cells with or without αPD-1 therapy; format: cell-based, Human; details: for TALL-104-mediated tumor cell killing: αPD-1 antibody added to co-culture, compared to TALL-104 cells alone
Experimental: (§1) Immune cell co-culture experiments. Co-culture experiments were conducted with GFP+ SW480 or HCT-116 colorectal cancer cells and either NK-92 natural killer cells or TALL-104 T cells in a 48-well plate, in the presence or absence of 9-ING-41. HCT-116 cells were labeled using CellTracker™ Green CMFDA (5-chloromethylfluorescein diacetate), immune cells (NK-92, TALL-104) were labeled using CellTracker™ Blue CMAC Dye (7-amino-4-chloromethylcoumarin), and ethidium homodimer-1 (EthD-1) was used as a marker of cell death (Invitrogen, Thermo Fisher Scientific, Waltham, MA, USA).
9-ING-41 increases tumor cell death in combination with αPD-1 therapy in a co-culture of HCT-116 colorectal cancer cells and immune cells. The inventors were interested in the applicability of GS3K-3 inhibitors such as 9-ING-41 in combination with immune checkpoint blockade. The inventors next performed co-cultures of immune cells (TALL-104, NK-92) and tumor cells (HCT-116) in the presence or absence of 9-ING-41, as well as either pembrolizumab® or nivolumab®, two humanized monoclonal antibodies against PD-1. The inventors evaluated HCT-116 cells in this co-culture model to determine if the 9-ING-41-mediated increase in immune cell-mediated SW480 cell killing could be reproduced in another colorectal cancer cell line.

[2] = test system: HCT-116 colorectal cancer cells; test: Co-culture of HCT-116 and NK-92 cells with or without αPD-1 therapy; format: cell-based, Human; details: not statistically significant
Experimental: as §1

Compound	therapeutic index (GSK-3)	TALL-104-mediated tumor cell killing [1]	benefit in combination with NK-92 compared to NK-92 alone [2]	cell death, pembrolizumab+TALL-104 compared to nivolumab+TALL-104 [1]
[Li] [Lithium]	narrow therapeutic index			
nivolumab®: humanized monoclonal antibody against PD-1		increased amount of TALL-104-mediated tumor cell killing	limited benefit	
pembrolizumab®: humanized monoclonal antibody against PD-1		increased amount of TALL-104-mediated tumor cell killing	limited benefit	slight increase in cell death
